# pIC50: −log10 of the molar value.
# Tested on: 616215-338-R-J1-PDC spheroids with HUVEC/MSC, viability
# Assay: Anticancer human tumor 616215-338-R-J1-PDC patient-derived colon adenocarcinoma cell line growth inhibition [PI3K]
# Settings: for pIC50: curve of first compound; for viability, T/C: stronger effect = lower value
# How it was run: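 Spheroid viability read-out. Co-cultures contained the tumor line plus HUVEC and human MSCs. Each agent was paired with a PI3K inhibitor (inavolisib, alpelisib, duvelisib, copanlisib) across half-log dilutions starting at clinical Cmax, or at 10 microM when Cmax was unknown.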
# [1] = second compound 0.00316 µM, first compound 0.0316 µM
# [2] = second compound 0.00316 µM, first compound 0.1 µM
# [3] = second compound 0.00316 µM, first compound 0.316 µM
# [4] = second compound 0.00316 µM, first compound 1 µM
# [5] = second compound 0.00316 µM, first compound 3.16 µM
# [6] = second compound 0.00316 µM, first compound 10 µM
# [7] = second compound 0.01 µM, first compound 0.0316 µM
# [8] = second compound 0.01 µM, first compound 0.1 µM
# [9] = second compound 0.01 µM, first compound 0.316 µM
# [10] = second compound 0.01 µM, first compound 1 µM
# [11] = second compound 0.01 µM, first compound 3.16 µM
# [12] = second compound 0.01 µM, first compound 10 µM
# [13] = second compound 0.0316 µM, first compound 0.0316 µM
# [14] = second compound 0.0316 µM, first compound 0.1 µM
# [15] = second compound 0.0316 µM, first compound 0.316 µM
# [16] = second compound 0.0316 µM, first compound 1 µM
# [17] = second compound 0.0316 µM, first compound 3.16 µM
# [18] = second compound 0.0316 µM, first compound 10 µM
# [19] = second compound 0.1 µM, first compound 0.0316 µM
# [20] = second compound 0.1 µM, first compound 0.1 µM
# [21] = second compound 0.1 µM, first compound 0.316 µM
# [22] = second compound 0.1 µM, first compound 1 µM
# [23] = second compound 0.1 µM, first compound 3.16 µM
# [24] = second compound 0.1 µM, first compound 10 µM
# [25] = second compound 0.316 µM, first compound 0.0316 µM
# [26] = second compound 0.316 µM, first compound 0.1 µM
# [27] = second compound 0.316 µM, first compound 0.316 µM
# [28] = second compound 0.316 µM, first compound 1 µM
# [29] = second compound 0.316 µM, first compound 3.16 µM
# [30] = second compound 0.316 µM, first compound 10 µM
# [31] = second compound 1 µM, first compound 0.0316 µM
# [32] = second compound 1 µM, first compound 0.1 µM
# [33] = second compound 1 µM, first compound 0.316 µM
# [34] = second compound 1 µM, first compound 1 µM
# [35] = second compound 1 µM, first compound 3.16 µM
# [36] = second compound 1 µM, first compound 10 µM
# 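Also: spheroids exposed to agents for seven days before the viability read.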
compound,measurement,setting,value
C[C@@H](NC(=O)c1ncnc(N)c1Cl)c1ncc(C(=O)Nc2cc(C(F)(F)F)c(Cl)cn2)s1 + CC(Nc1ccc2c(c1)OCCn1cc(N3C(=O)OCC3C(F)F)nc1-2)C(N)=O,pIC50,second compound 0.00316 µM,< 5.00
same,pIC50,second compound 0.01 µM,< 5.00
same,pIC50,second compound 0.0316 µM,< 5.00
same,pIC50,second compound 0.1 µM,< 5.00
same,pIC50,second compound 0.316 µM,< 5.00
same,pIC50,second compound 1 µM,5.13
same,"viability, T/C",[1],103%
same,"viability, T/C",[2],101%
same,"viability, T/C",[3],107%
same,"viability, T/C",[4],106%
same,"viability, T/C",[5],96.5%
same,"viability, T/C",[6],88.7%
same,"viability, T/C",[7],102%
same,"viability, T/C",[8],109%
same,"viability, T/C",[9],98.1%
same,"viability, T/C",[10],104%
same,"viability, T/C",[11],93.3%
same,"viability, T/C",[12],74.8%
same,"viability, T/C",[13],95.5%
same,"viability, T/C",[14],104%
same,"viability, T/C",[15],101%
same,"viability, T/C",[16],103%
same,"viability, T/C",[17],115%
same,"viability, T/C",[18],66%
same,"viability, T/C",[19],100%
same,"viability, T/C",[20],104%
same,"viability, T/C",[21],115%
same,"viability, T/C",[22],102%
same,"viability, T/C",[23],99.5%
same,"viability, T/C",[24],65.7%
same,"viability, T/C",[25],121%
same,"viability, T/C",[26],99%
same,"viability, T/C",[27],94.8%
same,"viability, T/C",[28],98.6%
same,"viability, T/C",[29],85.6%
same,"viability, T/C",[30],60.6%
same,"viability, T/C",[31],101%
same,"viability, T/C",[32],95.7%
same,"viability, T/C",[33],88.1%
same,"viability, T/C",[34],98%
same,"viability, T/C",[35],73.7%
same,"viability, T/C",[36],41.4%
CC1(C)CCC(Nc2ncc(C(F)(F)F)c(-c3c[nH]c4c(P(C)(C)=O)c(C#N)ccc34)n2)CN1 (stereo unspecified) + CC(Nc1ncnc2nc[nH]c12)c1cc2cccc(Cl)c2c(=O)n1-c1ccccc1,pIC50,second compound 0.0316 µM,7.50
same,pIC50,second compound 0.1 µM,7.50
same,pIC50,second compound 0.316 µM,7.50
same,pIC50,second compound 1 µM,> 7.50
same,pIC50,second compound 3.16 µM,5.96
same,pIC50,second compound 10 µM,6.15
same,"viability, T/C",[13],53.9%
same,"viability, T/C",[14],39%
same,"viability, T/C",[15],44.9%
same,"viability, T/C",[16],51.6%
same,"viability, T/C",[17],51.8%
same,"viability, T/C",[18],0.44%
same,"viability, T/C",[19],50.6%
same,"viability, T/C",[20],37%
same,"viability, T/C",[21],44.8%
same,"viability, T/C",[22],45.8%
same,"viability, T/C",[23],54%
same,"viability, T/C",[24],1.73%
same,"viability, T/C",[25],44%
same,"viability, T/C",[26],37.4%
same,"viability, T/C",[27],41.1%
same,"viability, T/C",[28],42.3%
same,"viability, T/C",[29],51.3%
same,"viability, T/C",[30],0.53%
same,"viability, T/C",[31],42.2%
same,"viability, T/C",[32],41.1%
same,"viability, T/C",[33],39.9%
same,"viability, T/C",[34],70.7%
same,"viability, T/C",[35],46.5%
same,"viability, T/C",[36],1.13%
same,"viability, T/C","second compound 3.16 µM, first compound 0.0316 µM",44.1%
same,"viability, T/C","second compound 3.16 µM, first compound 0.1 µM",39.4%
same,"viability, T/C","second compound 3.16 µM, first compound 0.316 µM",64.1%
same,"viability, T/C","second compound 3.16 µM, first compound 1 µM",57.4%
same,"viability, T/C","second compound 3.16 µM, first compound 3.16 µM",41.8%
same,"viability, T/C","second compound 3.16 µM, first compound 10 µM",0.36%
same,"viability, T/C","second compound 10 µM, first compound 0.0316 µM",48%
same,"viability, T/C","second compound 10 µM, first compound 0.1 µM",51.3%
same,"viability, T/C","second compound 10 µM, first compound 0.316 µM",58.4%
same,"viability, T/C","second compound 10 µM, first compound 1 µM",48.4%
same,"viability, T/C","second compound 10 µM, first compound 3.16 µM",20.9%
same,"viability, T/C","second compound 10 µM, first compound 10 µM",0.61%
Cn1ncc(Cl)c1-c1cc(C(=O)NC(CN)Cc2cccc(F)c2)sc1Cl (stereo unspecified) + CC(Nc1ccc2c(c1)OCCn1cc(N3C(=O)OCC3C(F)F)nc1-2)C(N)=O,pIC50,second compound 0.00316 µM,5.18
same,pIC50,second compound 0.01 µM,5.24
same,pIC50,second compound 0.0316 µM,5.23
same,pIC50,second compound 0.1 µM,5.24
same,pIC50,second compound 0.316 µM,5.20
same,pIC50,second compound 1 µM,5.26
same,"viability, T/C",[1],101%
same,"viability, T/C",[2],82.3%
same,"viability, T/C",[3],96.3%
same,"viability, T/C",[4],92.7%
same,"viability, T/C",[5],78.6%
same,"viability, T/C",[6],33.6%
same,"viability, T/C",[7],87.6%
same,"viability, T/C",[8],96%
same,"viability, T/C",[9],115%
same,"viability, T/C",[10],104%
same,"viability, T/C",[11],68.3%
same,"viability, T/C",[12],33.6%
same,"viability, T/C",[13],104%
same,"viability, T/C",[14],92.2%
same,"viability, T/C",[15],91.9%
same,"viability, T/C",[16],88.8%
same,"viability, T/C",[17],73.7%
same,"viability, T/C",[18],30.3%
same,"viability, T/C",[19],90.2%
same,"viability, T/C",[20],108%
same,"viability, T/C",[21],95.1%
same,"viability, T/C",[22],83.7%
same,"viability, T/C",[23],73.4%
same,"viability, T/C",[24],30%
same,"viability, T/C",[25],90.1%
same,"viability, T/C",[26],110%
same,"viability, T/C",[27],97%
same,"viability, T/C",[28],88.3%
same,"viability, T/C",[29],71.6%
same,"viability, T/C",[30],36.1%
same,"viability, T/C",[31],100%
same,"viability, T/C",[32],101%
same,"viability, T/C",[33],93.9%
same,"viability, T/C",[34],81.1%
same,"viability, T/C",[35],74.6%
same,"viability, T/C",[36],27.9%

# Reference: PubChem BioAssay AID1963978 (Molecular Pharmacology Branch, DTP, NCI, 2024)
